pIC50: −log10 of the molar value.

For test [1], the system named is sterol synthesis by rat liver homogenate. The experiment in a line: CSI screen: inhibition of sterol synthesis (14C-acetate incorporation into nonsaponifiable lipid) by rat liver homogenate. The class given is biochemical. The following applies: one-hour period, footnote: adjusted for a standard IC50 value for compactin (internal standard). How it is done: The ability of compounds of the present invention to inhibit the biosynthesis of cholesterol was measured by two methods. A first method (designated CSI screen) utilized the procedure described by R. E. Dugan et al., Archiv. Biochem. Biophys., (1972), 152, 21-27. In this method, the level of HMG-CoA enzyme activity in standard laboratory rats is increased by feeding the rats a chow diet containing 5% cholestyramine for four days, after which the rats are sacrificed.
The rat livers are homogenized, and the incorporation of cholesterol-^14 C-acetate into nonsaponifiable lipid by the rat liver homogenate is measured. The micromolar concentration of compound required for 50% inhibition of sterol synthesis over a one-hour period is measured, and expressed as an IC50 value.

For a further test, the target named is T1, HMG-CoA reductase (Rattus norvegicus, UniProt P51639).
T1 sequence (P51639 1-887): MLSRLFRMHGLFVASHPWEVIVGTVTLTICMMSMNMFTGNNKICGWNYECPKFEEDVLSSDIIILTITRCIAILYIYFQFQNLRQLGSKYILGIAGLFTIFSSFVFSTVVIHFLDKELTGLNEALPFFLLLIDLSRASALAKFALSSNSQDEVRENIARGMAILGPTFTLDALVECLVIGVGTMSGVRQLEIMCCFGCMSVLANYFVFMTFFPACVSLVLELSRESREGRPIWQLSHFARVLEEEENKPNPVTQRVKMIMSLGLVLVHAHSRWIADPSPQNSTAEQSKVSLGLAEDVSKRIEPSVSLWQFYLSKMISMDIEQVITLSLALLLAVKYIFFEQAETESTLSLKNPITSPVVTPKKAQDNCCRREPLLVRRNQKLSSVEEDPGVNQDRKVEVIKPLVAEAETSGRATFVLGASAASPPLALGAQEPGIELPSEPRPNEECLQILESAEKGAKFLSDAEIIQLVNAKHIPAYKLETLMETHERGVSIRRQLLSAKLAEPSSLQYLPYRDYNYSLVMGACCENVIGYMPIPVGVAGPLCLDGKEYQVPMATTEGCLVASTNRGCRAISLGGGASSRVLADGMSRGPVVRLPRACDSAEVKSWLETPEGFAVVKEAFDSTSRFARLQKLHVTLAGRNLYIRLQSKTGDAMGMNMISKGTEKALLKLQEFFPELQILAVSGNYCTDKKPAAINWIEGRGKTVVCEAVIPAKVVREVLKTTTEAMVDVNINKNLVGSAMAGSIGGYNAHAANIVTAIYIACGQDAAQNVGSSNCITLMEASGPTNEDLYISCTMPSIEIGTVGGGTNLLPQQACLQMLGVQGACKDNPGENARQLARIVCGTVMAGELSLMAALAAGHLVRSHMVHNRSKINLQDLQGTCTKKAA
The experiment in a line: COR screen: conversion of 14C-HMG-CoA to 14C-mevalonate by purified HMG-CoA reductase. The following applies: purified enzyme preparation, footnote: adjusted for a standard IC50 value for compactin (internal standard). The class given is biochemical. How it is done: A second method (designated COR screen) employed the procedure detailed by T. Kita, et al., J. Clin. Invest., (1980), 66: 1094-1100. In this method, the amount of ^14 C-HMG-CoA converted to ^14 C-mevalonate in the presence of a purified enzyme preparation of HMG-CoA reductase was measured. The micromolar concentration of compound required for 50% inhibition of cholesterol synthesis was measured and recorded as an IC50 value.

With `CC[C@H](C)C(=O)O[C@H]1CCC=C2C=C[C@H](C)[C@H](CC[C@@H]3C[C@@H](O)CC(=O)O3)[C@H]21` [Compound 5, Compactin, reference compound], the results for the pIC50 (in test [1]; at HMG-CoA reductase) were 7.59 and 7.55, respectively.
Regarding `CC(C)c1c(Cl)c(Cl)c(-c2ccc(F)cc2)n1CC[C@H]1C[C@H](O)CC(=O)O1` (relative stereo) [Compound 2, 6-[2-[2-(4-fluorophenyl)-3,4-dichloro-5-(1-methylethyl)-1H-pyrrol-1-yl]ethyl]tetrahydro-4-hydroxy-trans-2H-pyran-2-one], the results for the pIC50 (in test [1]; at HMG-CoA reductase) were 6.80 and 7.62, respectively.
For `CC(C)c1c(Br)c(Br)c(-c2ccc(F)cc2)n1CC[C@H]1C[C@H](O)CC(=O)O1` (relative stereo) [Compound 3, 6-[2-[2-(4-fluorophenyl)-3,4 dibromo-5-(1-methylethyl)-1H-pyrrol-1-yl]ethyl]tetrahydro-4-hydroxy-trans-2H-pyran-2-one], in that order: 6.66 and 9.00.
As for `CC(C)c1ccc(-c2ccc(F)cc2)n1CC[C@H]1C[C@H](O)CC(=O)O1` (relative stereo) [Compound 1, trans-6-[2-[2-(4-fluorophenyl)-5-(1-methylethyl)-1H-pyrrol-1-yl]ethyl]tetrahydro-4-hydroxy-2H-pyran-2-one], the pIC50 was 6.32 in test [1] and 6.55 against HMG-CoA reductase.
For `COC(=O)c1c(C(=O)OC)c(C(C)C)n(CC[C@@H]2C[C@@H](O)CC(=O)O2)c1-c1ccc(F)cc1` (relative stereo) [Compound 4, Dimethyl-2-(4-Fluorophenyl)-5-(1-methylethyl)-1-[2-(tetrahydro-4-hydroxy-6-oxo-2H-pyran-2-yl)ethyl]-1H-pyrrole-3,4-dicarboxylate], the pIC50 is 6.96 in test [1] and 7.10 against HMG-CoA reductase.

As a reminder, the pIC50 is the negative decadic logarithm of the IC50, by convention in mol/L. A high value points to a small IC50.

Values taken from patent US4647576A, “Trans-6-[2-(substitutedpyrrol-1-yl)alkyl]-pyran-2-one inhibitors of cholesterol synthesis” (Warner-Lambert Company, priority 1984, dated 1987).
